Laboratory results from patent publication US7803992B2, “Methods and compositions for expressing an herbicide-tolerant polynucleotide” (Pioneer Hi-Bred International, Inc., priority 2005, dated 2010).

Legend:
Assay type in all cases: in vivo
[1] = system: parent elite stiff stalk inbred corn; experiment: Preemergence herbicide application in greenhouse: fresh shoot weight and visual injury; settings: for pest or weed control at 200 g/ha: Zea mays, pre-emergence, 672 h, read-out: % Visual Injury; for Fresh Weight: fresh shoots weighed 4 weeks after treatment, untreated 36.7 g
[2] = system: Heterozygous GAT-HRA corn; experiment: Postemergence herbicide application in greenhouse: fresh shoot weight and visual injury; settings: for pest or weed control at 200 g/ha: Zea mays, post-emergence, read-out: % Visual Injury; for Fresh Weight: weighed 2 weeks after treatment, untreated 98.8 g
[3] = system: Heterozygous GAT-HRA corn; experiment: Preemergence herbicide application in greenhouse: fresh shoot weight and visual injury; settings: for pest or weed control at 200 g/ha: Zea mays, pre-emergence, 672 h, read-out: % Visual Injury; for Fresh Weight: fresh shoots weighed 4 weeks after treatment, untreated 47.0 g
[4] = system: parent elite stiff stalk inbred corn; experiment: Postemergence herbicide application in greenhouse: fresh shoot weight and visual injury; settings: for pest or weed control at 200 g/ha: Zea mays, post-emergence, read-out: % Visual Injury; for Fresh Weight: weighed 2 weeks after treatment, untreated 76.4 g
[5] = preemergence, 200 g/ha, mean of four replications
[6] = postemergence, 200 g/ha (glyphosate 3472 g ae/ha, glufosinate ammonium 1870 g/ha), mean of four replications
[7] = preemergence, 200 g/ha, 0% no injury, 100% plant death, mean of four replications
[8] = postemergence, 200 g/ha (glyphosate 3472 g ae/ha, glufosinate ammonium 1870 g/ha), 0% no injury, 100% plant death, mean of four replications

## COC(=O)c1c(Cl)nn(C)c1S(=O)(=O)NC(=O)Nc1nc(OC)cc(OC)n1 [Halosulfuron-methyl]
[1]
  pest or weed control at 200 g/ha: 30%
[1]; [5]
  Fresh Weight: 28.9 g
[2]; […]
  pest or weed control at 200 g/ha: 8%
[2]; [6]
  Fresh Weight: 94.5 g
[3]
  pest or weed control at 200 g/ha: 15%
[3]; [5]
  Fresh Weight: 40.1 g
[4]; […]
  pest or weed control at 200 g/ha: 14%
[4]; [6]
  Fresh Weight: 58.1 g

## CCOc1nc(NC)nc(NC(=O)NS(=O)(=O)c2ccccc2C(=O)OC)n1 [Ethametsulfuron-methyl]
[1]
  pest or weed control at 200 g/ha: 100%
[1]; [5]
  Fresh Weight: 1.6 g
[2]; […]
  pest or weed control at 200 g/ha: 6%
[2]; [6]
  Fresh Weight: 98.0 g
[3]
  pest or weed control at 200 g/ha: 88%
[3]; [5]
  Fresh Weight: 50.1 g
[4]; […]
  pest or weed control at 200 g/ha: 96%
[4]; [6]
  Fresh Weight: 5.6 g

## COC(=O)c1ccccc1S(=O)(=O)NC(=O)Nc1nc(OC(F)F)cc(OC(F)F)n1 [Primisulfuron-methyl]
[1]
  pest or weed control at 200 g/ha: 68%
[1]; [5]
  Fresh Weight: 19.5 g
[2]; […]
  pest or weed control at 200 g/ha: 5%
[2]; [6]
  Fresh Weight: 101.0 g
[3]
  pest or weed control at 200 g/ha: 7%
[3]; [5]
  Fresh Weight: 37.9 g
[4]; […]
  pest or weed control at 200 g/ha: 75%
[4]; [6]
  Fresh Weight: 16.6 g

## CC(C)C1(C)N=C(c2nc3ccccc3cc2C(=O)O)NC1=O (stereo not drawn) [Imazaquin]
[1]
  pest or weed control at 200 g/ha: 99%
[1]; [5]
  Fresh Weight: 1.5 g
[2]; […]
  pest or weed control at 200 g/ha: 2%
[2]; [6]
  Fresh Weight: 113.3 g
[3]
  pest or weed control at 200 g/ha: 28%
[3]; [5]
  Fresh Weight: 45.4 g
[4]; […]
  pest or weed control at 200 g/ha: 100%
[4]; [6]
  Fresh Weight: 4.4 g

## CO/N=C(/C)c1cccc(Oc2nc(OC)cc(OC)n2)c1C(=O)OC [Pyriminobac-methyl]
[1]
  pest or weed control at 200 g/ha: 83%
[1]; [5]
  Fresh Weight: 30.4 g
[2]; […]
  pest or weed control at 200 g/ha: 4%
[2]; [6]
  Fresh Weight: 95.2 g
[3]
  pest or weed control at 200 g/ha: 20%
[3]; [5]
  Fresh Weight: 39.9 g
[4]; […]
  pest or weed control at 200 g/ha: 93%
[4]; [6]
  Fresh Weight: 7.6 g

## CCCOc1nn(C(=O)NS(=O)(=O)c2ccccc2C(=O)OC)c(=O)n1C [Propoxycarbazone Na^+, Propoxycarbazone]
[1]; [7]
  % Visual Injury: 100%
[1]; [5]
  Fresh Weight: 0.6 g
[2]; [8]
  % Visual Injury: 9%
[2]; [6]
  Fresh Weight: 101.2 g
[3]; [7]
  % Visual Injury: 100%
[3]; [5]
  Fresh Weight: 46.7 g
[4]; [8]
  % Visual Injury: 100%
[4]; [6]
  Fresh Weight: 1.9 g

## COc1cc(OC)nc(NC(=O)NS(=O)(=O)c2c(-c3nnn(C)n3)cnn2C)n1 [Azimsulfuron]
[1]; [7]
  pest or weed control at 200 g/ha: 100%
[1]; [5]
  Fresh Weight: 0.0 g
[2]; [8]
  pest or weed control at 200 g/ha: 20%
[2]; [6]
  Fresh Weight: 87.9 g
[3]; [7]
  pest or weed control at 200 g/ha: 40%
[3]; [5]
  Fresh Weight: 49.1 g
[4]; [8]
  pest or weed control at 200 g/ha: 100%
[4]; [6]
  Fresh Weight: 1.5 g

## CCS(=O)(=O)c1nc2ccccn2c1S(=O)(=O)NC(=O)Nc1nc(OC)cc(OC)n1 [Sulfosulfuron]
[1]; [7]
  pest or weed control at 200 g/ha: 100%
[1]; [5]
  Fresh Weight: 1.0 g
[2]; [8]
  pest or weed control at 200 g/ha: 3%
[2]; [6]
  Fresh Weight: 105.5 g
[3]; [7]
  pest or weed control at 200 g/ha: 18%
[3]; [5]
  Fresh Weight: 50.6 g
[4]; [8]
  pest or weed control at 200 g/ha: 97%
[4]; [6]
  Fresh Weight: 4.0 g

## COC(=O)c1ccccc1CS(=O)(=O)NC(=O)Nc1nc(OC)cc(OC)n1 [Bensulfuron-methyl]
[1]; [7]
  pest or weed control at 200 g/ha: 23%
[1]; [5]
  Fresh Weight: 28.4 g
[2]; [8]
  pest or weed control at 200 g/ha: 14%
[2]; [6]
  Fresh Weight: 103.3 g
[3]; [7]
  pest or weed control at 200 g/ha: 10%
[3]; [5]
  Fresh Weight: 39.9 g
[4]; [8]
  pest or weed control at 200 g/ha: 93%
[4]; [6]
  Fresh Weight: 9.0 g

## COC(=O)c1sccc1S(=O)(=O)NC(=O)Nc1nc(C)nc(OC)n1 [Thifensulfuron-methyl]
[1]; [7]
  pest or weed control at 200 g/ha: 88%
[1]; [5]
  Fresh Weight: 15.2 g
[2]; [8]
  pest or weed control at 200 g/ha: 10%
[2]; [6]
  Fresh Weight: 86.6 g
[3]; [7]
  pest or weed control at 200 g/ha: 3%
[3]; [5]
  Fresh Weight: 36.0 g
[4]; [8]
  pest or weed control at 200 g/ha: 98%
[4]; [6]
  Fresh Weight: 4.2 g

## COc1cc(OC)nc(NC(=O)NS(=O)(=O)c2cc(NC=O)ccc2C(=O)N(C)C)n1 [Foramsulfuron]
[1]; [7]
  pest or weed control at 200 g/ha: 5%
[1]; [5]
  Fresh Weight: 30.6 g
[2]; [8]
  pest or weed control at 200 g/ha: 8%
[2]; [6]
  Fresh Weight: 80.6 g
[3]; [7]
  pest or weed control at 200 g/ha: 7%
[3]; [5]
  Fresh Weight: 39.1 g
[4]; [8]
  pest or weed control at 200 g/ha: 28%
[4]; [6]
  Fresh Weight: 62.5 g

## COCc1cnc(C2=NC(C)(C(C)C)C(=O)N2)c(C(=O)O)c1 (stereo not drawn) [Imazamox]
[1]; [7]
  pest or weed control at 200 g/ha: 99%
[1]; [5]
  Fresh Weight: 0.8 g
[2]; [8]
  pest or weed control at 200 g/ha: 4%
[2]; [6]
  Fresh Weight: 90.9 g
[3]; [7]
  pest or weed control at 200 g/ha: 13%
[3]; [5]
  Fresh Weight: 47.5 g
[4]; [8]
  pest or weed control at 200 g/ha: 100%
[4]; [6]
  Fresh Weight: 2.2 g

## COC(=O)c1ccc(I)cc1S(=O)(=O)NC(=O)Nc1nc(C)nc(OC)n1 [Iodosulfuron-methyl Na^+, Iodosulfuron-methyl]
[1]; [7]
  % Visual Injury: 92%
[1]; [5]
  Fresh Weight: 24.4 g
[2]; [8]
  % Visual Injury: 1%
[2]; [6]
  Fresh Weight: 95.0 g
[3]; [7]
  % Visual Injury: 5%
[3]; [5]
  Fresh Weight: 52.5 g
[4]; [8]
  % Visual Injury: 100%
[4]; [6]
  Fresh Weight: 3.5 g

## CP(=O)(O)CCC(N)C(=O)O (stereo not drawn) [Glufosinate ammonium]
[2]; […]
  pest or weed control at 200 g/ha: 1%
[2]; [6]
  Fresh Weight: 112.3 g
[4]; […]
  pest or weed control at 200 g/ha: 99%
[4]; [6]
  Fresh Weight: 2.4 g

## COC(=O)c1ccccc1S(=O)(=O)NC(=O)Nc1nc(C)cc(C)n1 [Sulfometuron-methyl]
[1]
  pest or weed control at 200 g/ha: 100%
[1]; [5]
  Fresh Weight: 0.0 g
[2]; […]
  pest or weed control at 200 g/ha: 2%
[2]; [6]
  Fresh Weight: 104.5 g
[3]
  pest or weed control at 200 g/ha: 6%
[3]; [5]
  Fresh Weight: 47.3 g
[4]; […]
  pest or weed control at 200 g/ha: 100%
[4]; [6]
  Fresh Weight: 2.0 g

## Imazamethabenz-methyl
[1]; [7]
  % Visual Injury: 61%
[1]; [5]
  Fresh Weight: 36.2 g
[2]; [8]
  % Visual Injury: 16%
[2]; [6]
  Fresh Weight: 95.0 g
[3]; [7]
  % Visual Injury: 15%
[3]; [5]
  Fresh Weight: 48.5 g
[4]; [8]
  % Visual Injury: 11%
[4]; [6]
  Fresh Weight: 66.9 g

## COc1nn(C(=O)NS(=O)(=O)c2ccccc2OC(F)(F)F)c(=O)n1C [Flucarbazone Na^+, Flucarbazone]
[1]; [7]
  % Visual Injury: 100%
[1]; [5]
  Fresh Weight: 0.0 g
[2]; [8]
  % Visual Injury: 14%
[2]; [6]
  Fresh Weight: 86.0 g
[3]; [7]
  % Visual Injury: 40%
[3]; [5]
  Fresh Weight: 48.8 g
[4]; [8]
  % Visual Injury: 100%
[4]; [6]
  Fresh Weight: 3.1 g

## COc1cc(OC)nc(NC(=O)NS(=O)(=O)c2ncccc2OCC(F)(F)F)n1 [Trifloxysulfuron Na^+, Trifloxysulfuron]
[1]; [7]
  % Visual Injury: 100%
[1]; [5]
  Fresh Weight: 0.0 g
[2]; [8]
  % Visual Injury: 29%
[2]; [6]
  Fresh Weight: 86.6 g
[3]; [7]
  % Visual Injury: 0%
[3]; [5]
  Fresh Weight: 50.8 g
[4]; [8]
  % Visual Injury: 100%
[4]; [6]
  Fresh Weight: 1.0 g

## COc1nc(C)nc(NC(=O)NS(=O)(=O)c2ccccc2CCC(F)(F)F)n1 [Prosulfuron]
[1]; [7]
  pest or weed control at 200 g/ha: 68%
[1]; [5]
  Fresh Weight: 20.9 g
[2]; [8]
  pest or weed control at 200 g/ha: 29%
[2]; [6]
  Fresh Weight: 91.3 g
[3]; [7]
  pest or weed control at 200 g/ha: 9%
[3]; [5]
  Fresh Weight: 43.3 g
[4]; [8]
  pest or weed control at 200 g/ha: 25%
[4]; [6]
  Fresh Weight: 53.6 g

## CCOc1nc(F)cc2nc(S(=O)(=O)Nc3c(Cl)cccc3C(=O)OC)nn12 [Chloransulam-methyl]
[1]; [7]
  % Visual Injury: 3%
[1]; [5]
  Fresh Weight: 5.5 g
[2]; [8]
  % Visual Injury: 3%
[2]; [6]
  Fresh Weight: 104.4 g
[3]; [7]
  % Visual Injury: 3%
[3]; [5]
  Fresh Weight: 44.9 g
[4]; [8]
  % Visual Injury: 96%
[4]; [6]
  Fresh Weight: 6.8 g
